Experimental data published in patent US5391540A, “Substituted pyridine compounds” (Rohm and Haas Company, priority 1993, dated 1995).

How the values were obtained:
Type in all cases: in vivo
Yellow Nutsedge = test: Pre-emergent herbicidal activity (Table A); conditions: Cyperus, pre-emergence, Yens, 11.2 kg/ha, 10-14 days, read-out: herbicidal rating (% inhibition)
In short: (§1)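 Seeds or vegetative propagules were set on topsoil compacted to 0.95 to 1.27 cm below the pan rim, then covered with soil thoroughly mixed with a known amount of test compound in acetone or water carrier. Ratings follow a scale of percent inhibition per species.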

Morningglory = test: Pre-emergent herbicidal activity (Table A); conditions: Ipomoea, pre-emergence, Mogl, 11.2 kg/ha, 10-14 days, read-out: herbicidal rating (% inhibition)
In short: as §1

Velvetleaf = test: Pre-emergent herbicidal activity (Table A); conditions: Abutilon theophrasti, pre-emergence, Vele, 11.2 kg/ha, 10-14 days, read-out: herbicidal rating (% inhibition)
In short: as §1

Downy Brome = test: Pre-emergent herbicidal activity (Table A); conditions: Bromus tectorum, pre-emergence, Dobr, 11.2 kg/ha, 10-14 days, read-out: herbicidal rating (% inhibition)
In short: as §1

Barnyardgrass = test: Pre-emergent herbicidal activity (Table A); conditions: Echinochloa crus-galli, pre-emergence, Bygr, 11.2 kg/ha, 10-14 days, read-out: herbicidal rating (% inhibition)
In short: as §1

Cocklebur = test: Pre-emergent herbicidal activity (Table A); conditions: Xanthium strumarium, pre-emergence, Cobu, 11.2 kg/ha, 10-14 days, read-out: herbicidal rating (% inhibition)
In short: as §1

Dobr = test: plant injury after spraying emerged plants (Table D)
Whez = test: as above; design: scale not given here
In short: (§2)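 Seeds or perennial propagules were pressed onto steam-sterilized sieved silt loam topsoil and covered with 1.27 cm of a 50:50 topsoil and peat moss/vermiculite/wetting agent mix. Pans were kept on a greenhouse bench over capillary mat and subirrigated as needed.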

Grso = test: as above; design: scale not given here
In short: as §2

Mogl = test: as above; design: scale not given here
In short: as §2

Bygr = test: as above; design: scale not given here
In short: as §2

Grft = test: as above; design: scale not given here
In short: as §2

Cobu = test: as above; design: scale not given here
In short: as §2

Corn = test: as above; design: scale not given here
In short: as §2

Lacg = test: as above; design: scale not given here
In short: as §2

Sobe = test: as above; design: scale not given here
In short: as §2

COC(=O)c1c(OC)nc(C(F)(F)F)c(C(=O)NCCCBr)c1CC(C)C [Compound 97, 3-pyridinecarboxylic acid, 5-[[(3-bromopropyl)amino)carbonyl]-2-methoxy-4-(2-methylpropyl)-6-(trifluoromethyl)-, methyl ester]
inhibition at 11200 g/ha (Yellow Nutsedge): 0 to 24%
inhibition at 11200 g/ha (Morningglory): 50 to 74%
inhibition at 11200 g/ha (Velvetleaf): 50 to 74%
inhibition at 11200 g/ha (Downy Brome): 50 to 74%
inhibition at 11200 g/ha (Barnyardgrass): 75 to 100%
inhibition at 11200 g/ha (Cocklebur): 0 to 24%
plant injury rating, Dobr (Dobr; 0.0701 kg/ha): 0
plant injury rating, Dobr (Dobr; 0.2803 kg/ha): 0
plant injury rating, Dobr (Dobr; 1.1210 kg/ha): 0
plant injury rating, Dobr (Dobr; 5.6050 kg/ha): 0
plant injury rating, Whez (Whez; 0.0701 kg/ha): 0
plant injury rating, Whez (Whez; 0.2803 kg/ha): 0
plant injury rating, Whez (Whez; 1.1210 kg/ha): 0
plant injury rating, Whez (Whez; 5.6050 kg/ha): 0
plant injury rating, Grso (Grso; 0.0701 kg/ha): 0
plant injury rating, Grso (Grso; 0.2803 kg/ha): 0
plant injury rating, Grso (Grso; 1.1210 kg/ha): 0
plant injury rating, Grso (Grso; 5.6050 kg/ha): 0
plant injury rating, Mogl (Mogl; 0.0701 kg/ha): 0
plant injury rating, Mogl (Mogl; 0.2803 kg/ha): 0
plant injury rating, Mogl (Mogl; 1.1210 kg/ha): 0
plant injury rating, Mogl (Mogl; 5.6050 kg/ha): 0
plant injury rating, Bygr (Bygr; 0.0701 kg/ha): 0
plant injury rating, Bygr (Bygr; 0.2803 kg/ha): 0
plant injury rating, Bygr (Bygr; 1.1210 kg/ha): 0
plant injury rating, Bygr (Bygr; 5.6050 kg/ha): 0
plant injury rating, Grft (Grft; 0.0701 kg/ha): 0
plant injury rating, Grft (Grft; 0.2803 kg/ha): 0
plant injury rating, Grft (Grft; 1.1210 kg/ha): 0
plant injury rating, Grft (Grft; 5.6050 kg/ha): 0
plant injury rating, Cobu (Cobu; 0.0701 kg/ha): 0
plant injury rating, Cobu (Cobu; 0.2803 kg/ha): 0
plant injury rating, Cobu (Cobu; 1.1210 kg/ha): 0
plant injury rating, Cobu (Cobu; 5.6050 kg/ha): 0
plant injury rating, Corn (Corn; 0.0701 kg/ha): 0
plant injury rating, Corn (Corn; 0.2803 kg/ha): 0
plant injury rating, Corn (Corn; 1.1210 kg/ha): 0
plant injury rating, Corn (Corn; 5.6050 kg/ha): 0
plant injury rating, Lacg (Lacg; 0.0701 kg/ha): 0
plant injury rating, Lacg (Lacg; 0.2803 kg/ha): 0
plant injury rating, Lacg (Lacg; 1.1210 kg/ha): 2
plant injury rating, Lacg (Lacg; 5.6050 kg/ha): 0
plant injury rating, Sobe (Sobe; 0.0701 kg/ha): 0
plant injury rating, Sobe (Sobe; 0.2803 kg/ha): 0
plant injury rating, Sobe (Sobe; 1.1210 kg/ha): 0
plant injury rating, Sobe (Sobe; 5.6050 kg/ha): 0
